Results: article PMC4381037 (The FEBS journal, 2009)

Molecular target: T1, His6-RMDPa (Pseudomonas aeruginosa, UniProt Q9HTB6)
T1 sequence (Q9HTB6 2-304 limits assumed): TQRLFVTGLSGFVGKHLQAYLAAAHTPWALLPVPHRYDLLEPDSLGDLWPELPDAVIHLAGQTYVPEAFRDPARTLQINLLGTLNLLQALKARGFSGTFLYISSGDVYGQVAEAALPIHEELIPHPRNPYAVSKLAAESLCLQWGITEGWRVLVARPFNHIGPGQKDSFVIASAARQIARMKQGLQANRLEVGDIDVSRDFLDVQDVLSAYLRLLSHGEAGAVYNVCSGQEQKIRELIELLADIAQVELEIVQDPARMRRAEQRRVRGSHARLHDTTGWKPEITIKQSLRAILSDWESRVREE
Experiment: capillary electrophoresis and NMR of product
Type: biochemical
Settings: with GDP-6-deoxy-D-lyxo-hexos-4-ulose; hydride donor; 37 °C, pH 7.5

Structure (SMILES): NC(=O)C1=CN([C@@H]2O[C@H](COP(=O)(O)OP(=O)(O)OC[C@H]3O[C@@H](n4cnc5c(N)ncnc54)[C@H](OP(=O)(O)O)[C@@H]3O)[C@@H](O)[C@H]2O)C=CC1 [NADPH]
- capillary electrophoresis and NMR of product: in the presence of excess NADPH, His6-RMDPa catalyzed the conversion
